{
  "source": "patent US7846924B2",
  "about": "“Cyanopyrroles” (Wyeth LLC, priority 1999, dated 2010)",
  "data": [
    {"values": [
      {"smiles": "CC1(C)OC(=O)Nc2ccc(-c3ccc(C#N)[nH]3)cc21", "note": "[Example 1, 5-(4,4-Dimethyl-2-oxo-1,4-dihydro-2H-benzo[d][1,3]oxazin-6-yl)-1H-pyrrole-2-carbonitrile]", "melting point": "241 to 242 °C"},
      {"smiles": "CC1(C)C(=O)Nc2ccc(C3(C#N)C=CC=N3)cc21", "note": "(stereo not drawn) [Example 3, 2-(3,3-Dimethyl-2-oxo-2,3-dihydro-1H-indol-5-yl)-2-cyanopyrrole]", "melting point": "255.9 to 257.9 °C"},
      {"smiles": "CCn1c(C#N)ccc1-c1ccc2c(c1)C(C)(C)OC(=O)N2", "note": "[Example 6, 5-(4,4-Dimethyl-2-oxo-1,4-dihydro-2H-3,1-benzoxazin-6-yl)-1-ethyl-1H-pyrrole-2-carbonitrile]", "melting point": "200 to 202 °C"},
      {"smiles": "C#CCn1c(C#N)ccc1-c1ccc2c(c1)C(C)(C)OC(=O)N2", "note": "[Example 7, 5-(4,4-dimethyl-2-oxo-1,4-Dihydro-2H-3,1-benzoxazin-6-yl)-1-prop-2-ynyl-1H-pyrrole-2-carbonitrile]", "melting point": "222 to 224 °C"},
      {"smiles": "CC(C)(C)OC(=O)Cn1c(C#N)ccc1-c1ccc2c(c1)C(C)(C)OC(=O)N2", "note": "[Example 8, tert-butyl[2-cyano-5-(4,4-dimethyl-2-oxo-1,4-dihydro-2H-3,1-benzoxazin-6-yl)-1H-pyrrol-1-yl]acetate]", "melting point": "188 to 190 °C"},
      {"smiles": "CC1(C)OC(=O)Nc2ccc(-c3ccc(C#N)n3CC(=O)O)cc21", "note": "[Example 9, [2-Cyano-5-(4,4-dimethyl-2-oxo-1,4-dihydro-2H-3,1-benzoxazin-6-yl)-1H-pyrrol-1yl]acetic acid]", "melting point": "207 to 209 °C"},
      {"smiles": "CCOc1cc(CCNC(=O)Cn2c(C#N)ccc2-c2ccc3c(c2)C(C)(C)OC(=O)N3)ccc1OC", "note": "[Example 10, 2-[2-cyano-5-(4,4-dimethyl-2-oxo-1,4-dihydro-2H-3,1-benzoxazin-6-yl)-1H-pyrrol-1-yl]-N-[2-(3-ethoxy-4-methoxyphenyl)ethyl]acetamide]", "melting point": "160 to 162 °C"},
      {"smiles": "CCCCCn1c(C#N)ccc1-c1ccc2c(c1)C(C)(C)OC(=O)N2", "note": "[Example 11, 5-(4,4-Dimethyl-2-oxo-1,4-dihydro-2H-3,1-benzoxazine-6-yl)-1-pentyl-1H-pyrrole-2-carbonitrile]", "melting point": "128 to 131 °C"},
      {"smiles": "CN1C(=O)OC(C)(C)c2cc(-c3ccc(C#N)[nH]3)ccc21", "note": "[Example 12, 5-(1,4,4-trimethyl-2-oxo-1,4-dihydro-2H-3,1-benzoxazin-6-yl)-1H-pyrrole-2-carbonitril]", "melting point": "256 to 257 °C (dec.)"}
    ]}
  ]
}
